A short description of the experiment: Inhibition of U46619-induced platelet aggregation.
As to `CCCCCNC(=O)NS(=O)(=O)c1cc([N+](=O)[O-])ccc1Nc1ccc(C)cc1`, the IC50 (commonly the point on the concentration scale where inhibition reaches its midpoint) worked out at 278 nM. In other words, the sub-micromolar range.

In turn, `Cc1ccc(Nc2ccc([N+](=O)[O-])cc2S(=O)(=O)NC(=O)N2CCCCC2)cc1` [N-[2-(4-methylphenylamino)-5-nitrobenzenesulfonyl]-piperidine-1-carboxamide] had a 50% inhibitory concentration (IC50) of 900 nM.

The compound `Cc1cccc(C)c1Nc1ccc([N+](=O)[O-])cc1S(=O)(=O)NC(=O)NC(C)(C)C` [N-tert-butyl-N'-[2-(2,6-dimethylphenylamino)-5-nitrobenzenesulfonyl]urea] registered an IC50 of 90 nM.

The compound `CCCCCNC(=O)NS(=O)(=O)c1cc([N+](=O)[O-])ccc1Oc1ccc(C)cc1` [N-n-pentyl-N'-[2-(4-methylphenoxy)-5-nitrobenzenesulfonyl]urea] showed an IC50 of 670 nM.

Turning to `Cc1ccc(Oc2ccc([N+](=O)[O-])cc2S(=O)(=O)NC(=O)NC(C)(C)C)cc1` [N-tert-butyl-N'-[2-(4-methylphenoxy)-5-nitrobenzenesulfonyl]urea], the IC50 was 300 nM.

The compound `Cc1ccc(Sc2ccc([N+](=O)[O-])cc2S(=O)(=O)NC(=O)NC(C)(C)C)cc1` [N-tert-butyl-N'-[2-(4-methylphenylthio)-5-nitrobenzenesulfonyl]urea] gave a concentration for half-maximal inhibition (IC50) of 800 nM.

In the case of `Cc1ccc(Nc2ccc([N+](=O)[O-])cc2S(=O)(=O)NC(=O)NC(C)(C)C)cc1` [BM 573], the IC50 stood at 240 nM.
